Tests used:
[1] = test system: TH-IR (dopaminergic) neurons in mesencephalic neuron-glia cultures; assay: TH-IR neuron count and morphology in LPS-treated neuron-glia cultures; type: cell-based, rat; settings: for dendrite network (immunocytochemical analysis): LPS; for attenuation of LPS-induced reduction in the number of TH-IR neurons: 30 min pretreatment
[2] = test system: dopaminergic neurons in rat primary mesencephalic neuron-glia cultures; assay: DA uptake / TH-IR count in neuron-glia cultures without toxin (spontaneous DA neuronal death, neurotrophic effect); type: cell-based
Experimental: In Example 23, [^3H]DA uptake assay and immunohistochemical analysis for TH-IR neurons were used to assess the viability of DA neurons in rat primary mesencephalic neuron-glia cultures in which approximately 1% of the neurons are dopaminergic. [^3H]DA uptake assays were performed as described in Example 1.
Rat primary mesencephalic neuron-glia cultures were prepared from the ventral mesencephalic tissues of embryonic day 13-14 Fisher 344 rats. Dissociated cells were seeded at a density of 5×10^5/well to poly-D-lysine-precoated 24-well plates. Cells were maintained at 37° C. in a humidified atmosphere of 5% CO2 and 95% air, in minimal essential medium containing 10% fetal bovine serum (FBS), 10% horse serum, 1 gm/l glucose, 2 mM L-glutamine, 1 mM sodium pyruvate, 100 μM non-essential amino acids, 50 U/ml penicillin, and 50 μg/ml streptomycin. Unless otherwise indicated, seven-day-old cultures were used for treatment.
Seven days after seeding, each well was treated with indicated concentration of VPA or its vehicle. Seven days after treatment, the viability of dopaminergic neurons was assessed by [^3H]DA uptake assays. Quantified results are expressed as mean±SEM of percentage of vehicle-treated cultures from three experiments performed in duplicate. *, p<0.05 compared with the corresponding vehicle-treated control cultures.
Next, the rat primary mesencephalic neuron-glia cultures were treated with 0.6 mM VPA for various times to determine the treatment time-dependency. Rat primary mesencephalic neuron-glia cultures in a 24-well plate were treated with 0.6 mM VPA or its vehicle for indicated time 7 days after seeding. The viability of dopaminergic neurons was assessed by [^3H]DA uptake assays, shown in FIG. 37 or counting of TH-IR neurons, shown in FIG. 38. Quantified results are expressed as mean±SEM of percentage of vehicle-treated control cultures from three experiments performed in duplicate. *, p<0.05 compared with the corresponding vehicle-treated control cultures. […] VPA time-dependently induces survival-promoting effects against spontaneous DA neuronal death in rat primary mesencephalic neuron-glia cultures.
Rat primary mesencephalic neuron-glia cultures seeded in a 24-well culture plate at density of 5×10^5 per well were treated with indicated concentrations of sodium butyrate or its vehicle 7 days after seeding. The viability of dopaminergic neurons was assessed by DA uptake assays 7 days after sodium butyrate addition.
Mesencephalic neuron-glia cultures, prepared as described above, were pretreated with vehicle or 3-HM (1-5 μM) before the treatment of LPS (10 ng/ml). Seven days later, the degeneration of dopaminergic neurons was determined by the functional assay of [^3H]DA uptake and by the morphometric measurement of dopaminergic neurons following immunostaining with an anti-TH antibody. [^3H]DA and immunostaining are performed as described above.

[3] = test system: dopaminergic neurons in mesencephalic neuron-enriched cultures; assay: [3H]DA uptake in neuron-enriched cultures (direct, conditioned media, reconstituted); type: cell-based, rat; settings: for DA uptake with 3-HM-treated astroglia conditioned media: 24 h conditioning, % of non-conditioned control, vehicle conditioned 122%
Experimental: Mixed-glia cultures were first prepared from brains of 1-day-old Fisher 344 rat pups, as described previously (Liu, et al. 2001). Mechanically dissociated brain cells (5×10^7) were seeded onto 150 cm^2 culture flasks in Dulbecco's modified Eagle's medium containing 10% heat-inactivated FBS, 2 mM L-glutamine, 1 mM sodium pyruvate, 100 μM non-essential amino acids, 50 U/ml penicillin, and 50 μg/ml streptomycin. The cultures were maintained at 37° C. in a humidified atmosphere of 5% CO2 and 95% air, and medium was replenished 4 days after the initial seeding. Upon reaching confluence (usually 12-14 days later), microglia were detached from astroglia by shaking the flasks for 5 hours at 180 rpm. Astroglia were then detached with trypsin-EDTA and seeded in the same culture medium. After five or more consecutive passages, cells were seeded onto 24-well plates (10^5/well) for experiments. Immunocytochemical staining of the astroglia enriched cultures with either anti-GFAP or anti-OX-42 antibody indicated astroglial purity of greater than 98% and less than 2% of microglia contamination.
Conditioned medium derived from rat primary astroglial cultures treated with vehicle (ACM) or 0.6 mM VPA (ACM-VPA) were harvested after 12, 24 and 48 hours of incubation. Midbrain neuron-enriched cultures seeded in 24-well plates at a density of 5×10^5 cells/well were treated with vehicle, VPA, ACM or ACM-VPA for 7 days. Neurotrophic effect was quantified by [^3H]DA uptake assay.
Rat mesencephalic neuron-enriched cultures are prepared from dissociated ventral mesencephalic cells from embryonic day 13-14 Fisher 344 rats were seeded first at a density of 5×10^5/well to poly-D-lysine-precoated 24-well culture plates. […] Three days later, the culture medium was replaced with the maintenance medium. Routinely, the seven-day-old neuron-enriched cultures were used for treatment. […] Of the Neu-N immunoractive neurons, 2.7-3.9% was TH-IR neurons.
To explore whether astroglial cells are also the main target of sodium butyrate-induced neurotrophic effect, we prepared media conditioned by incubation of astroglial cultures in the absence or presence 0.6 mM sodium butyrate. Conditioned medium derived from rat primary astroglial cultures treated with vehicle (ACM) or 0.6 mM sodium butyrate (ACM-Sodium butyrate) were harvested after 48 hours of incubation. Midbrain neuron-enriched cultures seeded in 24-well plates at a density of 5×10^5 cells/well were treated with vehicle, sodium butyrate, ACM or ACM-Sodium butyrate for 7 days. Seven days after treatment, neurotrophic effect for dopaminergic neurons was assessed by [^3H]DA uptake assays.
Various concentrations of 3-HM (0.1-5 μM) or vehicle were added to the following different cell cultures: neuron-enriched cultures (A); reconstituted cultures by adding 10% and 20% (5×10^4/well and 1×10^5/well) of microglia to the neuron-enriched cultures (B); reconstituted cultures by adding 40% and 50% (2×10^5/well and 2.5×10^5/well) of astroglia to the neuron-enriched cultures (C). Cultures are prepared as described in Example 25. The [^3H]DA uptake measurements were performed […] after treatment. Results were expressed as a percentage of the vehicle-treated control cultures and were the mean±SE from five (A) and four (B,C) independent experiments in triplicate. *P<0.05 and **P, 0.001 compared with the vehicle-treated control cultures. #P<0.05 compared with the augmented cultures with 40% astroglia. N, neuron-enriched cultures; N+10% (20%) MG: 10% (20%) of microglia were added back to the neuron-enriched cultures; N+40% (50%) AS: 40% (50%) of astroglia were added back to the neuron-enriched cultures.
To confirm the possible role of astroglia in the neurotrophic effect of 3-HM, conditioned media from astroglia-enriched cultures (prepared as described above) treated with either 3-HM (1-5 μM) or vehicle for 24 hours were prepared. […]

[4] = test system: dopaminergic neurons in rat primary mesencephalic neuron-glia cultures; assay: [3H]DA uptake in LPS-treated mesencephalic neuron-glia cultures; type: cell-based; settings: for DA uptake, post-treatment with DM: LPS 20 ng/ml 12 h then removed

Oc1ccc2c(c1)[C@@]13CCCC[C@H]1[C@@H](C2)NCC3 [3-HM, 3-hydroxymorphinan]
number of dopaminergic neurons ([1]; 3-HM 5 μM pretreatment, LPS 10 ng/ml, LPS alone reduced by 51%): 97 % of the vehicle-treated control cultures | average length of dopaminergic neuronal neurites ([1]; 3-HM pretreatment, LPS 10 ng/ml, LPS alone 43%): 110 % of the vehicle-treated control cultures | increase of DA uptake capacity vs vehicle-treated control ([2]; 3-HM 1-5 μM alone, 7 days): 20-60% | neurotrophic effect of compound alone in neuron-glia cultures [2]: significant neurotrophic effect | DA uptake with 3-HM-treated astroglia conditioned media ([3]; 3-HM 1 μM, 10 days): 151.3% | DA uptake with 3-HM-treated astroglia conditioned media ([3]; 3-HM 2.5 μM, 10 days): 160.9% | DA uptake with 3-HM-treated astroglia conditioned media ([3]; 3-HM 5 μM, 10 days): 197.8% | DA uptake capacity in neuron-enriched cultures ([3]; 3-HM 0.1-5 μM, 10 days): failed to show a significant increase in the DA uptake capacity | DA uptake, neuron-enriched cultures + microglia ([3]; 10% or 20% of microglia added back, 3-HM-treated, 10 days): failed to increase DA uptake | capacity of DA uptake, neuron-enriched cultures + astroglia ([3]; 40% of astroglia added back, 3-HM-treated, 10 days): 135.8% | capacity of DA uptake, neuron-enriched cultures + astroglia ([3]; 50% of astroglia added back, 3-HM-treated, 10 days): 158.3% | LPS-induced decrease in DA uptake ([4]; 3-HM 5 μM, LPS 10 ng/ml, 7 days): almost back to the vehicle-treated control values

COc1ccc2c(c1)[C@@]13CCCC[C@H]1[C@@H](C2)N(C)CC3 [DM, d-3-methoxy-N-methylmorphinan]
dendrite network (immunocytochemical analysis) ([1]; DM 10^−5 M and 10^−14 M): more elaborate dendrite network | attenuation of LPS-induced reduction in the number of TH-IR neurons ([1]; DM 10^−5 M, LPS 10 ng/ml): 37% | dendrite network (immunocytochemical analysis) ([1]; DM 10^−10 M): failed to show improvement | dopaminergic neuron degeneration (TH-IR neuron number) ([1]; DM 10^−10 M, LPS 10 ng/ml): no protective effects | attenuation of LPS-induced reduction in the number of TH-IR neurons ([1]; DM 10^−14 M, LPS 10 ng/ml): 28% | neurotrophic effect of compound alone in neuron-glia cultures [2]: not observed | neurotrophic effect of DM-treated astroglia conditioned media ([3]; DM 5 μM, vs vehicle-treated conditioned cultures): failed to exhibit any neurotrophic effect | LPS-induced decrease in [3H]-dopamine uptake ([4]; DM 10^−13 and 10^−14 M, 30 min pretreatment, LPS 10 ng/ml, 7 days): equipotent neuroprotective effect | DA uptake, post-treatment with DM ([4]; DM 10^−5 and 10^−14 M post-treatment): showed a protective effect | DA uptake, post-treatment with DM ([4]; DM 10^−10 M post-treatment): but not at 10^−10 M

CCCC(CCC)C(=O)O [VPA, Valproic acid]
DA neuron morphology (anti-TH), VPA alone ([1]; VPA 0.6 mM alone): promoted neurite formation and inter-neuronal networks | TH immunostaining in cell bodies and neuronal processes ([1]; VPA 0.6 mM, alone or with LPS, vs vehicle control): enhanced the TH immunostaining | LPS-induced decrease of TH-ir neurons and loss of neuronal process (morphology) ([1]; VPA 0.2-0.6 mM pretreatment, LPS 20 ng/ml): reversed by VPA pretreatment in a dose-dependent manner | LPS-induced morphological changes of DA neurons ([1]; VPA 0.2 to 0.6 mM, 48 hours pretreatment, LPS 10 ng/ml, 7 days): prevented by VPA pretreatment | LPS-induced loss of TH-ir neurons ([1]; VPA pretreatment 48 h, significant effect at 0.2, 0.4 and 0.6 mM, LPS 20 ng/ml 72 h): prevented by VPA pretreatment in a concentration-dependent manner | capacity of [3H]DA uptake vs vehicle-treated control ([2]; VPA 0.6 mM for 7 days): marked increase | number of TH-IR neurons vs vehicle-treated control ([2]; VPA 0.6 mM for 7 days): marked increase | spontaneous DA neuronal death (DA uptake) ([2]; VPA 0.6 mM, 7 days): significantly protected DA neurons from spontaneous neuronal death | increase in DA uptake ([3]; neuron-enriched cultures, 7 days, drug 0.6 mM or conditioned medium): less than 2 fold | DA uptake levels, VPA alone ([4]; VPA 0.6 mM alone, no LPS): did not affect DA uptake levels | neuroprotection against LPS neurotoxicity (DA uptake) ([4]; VPA 0.6 mM, 6 hours pretreatment, LPS 10 ng/ml): failed to induce a significant effect | neuroprotection against LPS neurotoxicity (DA uptake) ([4]; VPA 0.6 mM, 12 hours pretreatment, LPS 10 ng/ml): complete neuroprotection | neuroprotection against LPS neurotoxicity (DA uptake) ([4]; VPA 0.6 mM, 48 hours pretreatment, LPS 10 ng/ml): further increase in DA uptake levels | LPS-induced decrease in DA uptake ([4]; VPA 0.6 mM, 48 h pretreatment, LPS 20 ng/ml): completely restored | DA uptake levels vs untreated control ([4]; VPA 0.6 mM, alone or with LPS 10 ng/ml): significantly higher than those in the untreated control | LPS-induced reduction of DA uptake ([4]; VPA 0.05-0.6 mM, 48 h pretreatment, LPS 20 ng/ml 3 days): concentration-dependently prevented | LPS-induced loss of DA uptake capacity ([4]; VPA various doses, 48 hours pretreatment, LPS 10 ng/ml 5 days): robustly blocked

From patent US8796302B2 (priority 2004, dated 2014)
